Laboratory results as given in US5840684A, “Glycopeptide antibiotic derivatives” (Eli Lilly and Company, priority 1995, dated 1998).
≈ marks a conversion by molar mass, not a printed value.

Key:
[1] = tested on: Entercoccus faecium 2041; assay: broth micro-dilution MIC; format: cell-based; conditions: Entercoccus faecium 2041
Method: (§1) The formula I compounds have in vitro and in vivo activity against Gram-positive pathogenic bacteria. The MIC's were determined using a standard broth micro-dilution assay.

[2] = tested on: Entercoccus faecium 180; assay: broth micro-dilution MIC; format: cell-based; conditions: Entercoccus faecium 180
Method: as §1

[3] = tested on: Enterococcus gallinarum 245; assay: broth micro-dilution MIC; format: cell-based; conditions: Enterococcus gallinarum 245
Method: as §1

[4] = tested on: Staphylococcus epidermidis 270; assay: broth micro-dilution MIC; format: cell-based
Method: as §1

[5] = tested on: Staphylococcus aureus X778; assay: broth micro-dilution MIC; format: cell-based
Method: (§2) The MIC's were determined using a standard broth micro-dilution assay.

[6] = tested on: Staphylococcus aureus 491; assay: broth micro-dilution MIC; format: cell-based
Method: as §2

[7] = tested on: Staphylococcus aureus SA1199A; assay: broth micro-dilution MIC; format: cell-based
Method: as §2

[8] = tested on: Staphylococcus aureus 489; assay: broth micro-dilution MIC; format: cell-based
Method: as §2

[9] = tested on: Entercoccus faecium 276; assay: broth micro-dilution MIC; format: cell-based
Method: as §2

[10] = tested on: Streptococcus pyogenes C203; assay: broth micro-dilution MIC; format: cell-based
Method: as §2

[11] = tested on: Entercoccus faecium 180-1; assay: broth micro-dilution MIC; format: cell-based
Method: as §2

[12] = tested on: Staphylococcus aureus X400; assay: broth micro-dilution MIC; format: cell-based
Method: as §2

[13] = tested on: Stapylococcus aureus; assay: mouse protection, experimentally-induced infection; format: in vivo; conditions: mice infected with Stapylococcus aureus, two doses
[14] = tested on: Streptococcus pyogenes; assay: mouse protection, experimentally-induced infection; format: in vivo; conditions: mice infected with Streptococcus pyogenes, two doses
[15] = tested on: vancomycin-resistant enterococci; assay: broth micro-dilution, mean geometric MIC; format: cell-based, Enterococcus faecium and Enterococcus faecalis; conditions: enterococci, 24-hour incubation
[16] = tested on: Streptococcus pneumoniae; assay: mouse protection, experimentally-induced infection; format: in vivo; conditions: mice infected with Streptococcus pneumoniae, two doses
[17] = tested on: vancomycin-susceptible enterococci; assay: broth micro-dilution, mean geometric MIC; format: cell-based, Enterococcus faecium and Enterococcus faecalis; conditions: enterococci, 24-hour incubation
[18] = tested on: Staphylococcus haemolyticus 105; assay: broth micro-dilution MIC; format: cell-based
Method: as §1

[19] = tested on: Staphylococcus haemolyticus 415; assay: broth micro-dilution MIC; format: cell-based
Method: as §1

[20] = tested on: Streptococcus pneumoniae P1; assay: broth micro-dilution MIC; format: cell-based
Method: as §1

[21] = tested on: Staphylococcus aureus 447; assay: broth micro-dilution MIC; format: cell-based
Method: as §2

[22] = tested on: Staphylococcus aureus SA1199; assay: broth micro-dilution MIC; format: cell-based
Method: as §2

[23] = tested on: Staphylococcus aureus 446; assay: broth micro-dilution MIC; format: cell-based
Method: as §2

[24] = tested on: Staphylococcus aureus S13E; format: cell-based
Method: as §2

[25] = tested on: Staphylococcus aureus SA1199B; format: cell-based
Method: as §2

[26] = tested on: Leuconostoc mesenteroides; assay: agar dilution MIC, lactic acid bacteria; format: cell-based; conditions: Leuconostoc mesenteroides (mean of 4), brain-heart infusion agar
[27] = tested on: Leuconostoc citreum; assay: agar dilution MIC, lactic acid bacteria; format: cell-based; conditions: brain-heart infusion agar
[28] = tested on: Pediococcus acidilacti; assay: agar dilution MIC, lactic acid bacteria; format: cell-based; conditions: Pediococcus acidilacti (mean of 10), brain-heart infusion agar

| SMILES | MIC [1] [µg/mL] | MIC [2] [µg/mL] | MIC [3] [µg/mL] | MIC [4] [µg/mL] | MIC [5] [µg/mL] | MIC [6] [µg/mL] | MIC [7] [µg/mL] | MIC [8] [µg/mL] | MIC [9] [µg/mL] | MIC [10] [µg/mL] | MIC [11] [µg/mL] | MIC [12] [µg/mL] | ED50 [13] [mg/kg/2] | ED50 [14] [mg/kg/2] | mean geometric MIC, Vancomycin Resistant Strains [15] [µg/mL] | ED50 [16] | mean geometric MIC, Vancomycin Sensitive Strains [17] [µg/mL] | MIC [18] [µg/mL] | MIC [19] [µg/mL] | MIC [20] [µg/mL] | further results |
| --- | --- | --- | --- | --- | --- | --- | --- | --- | --- | --- | --- | --- | --- | --- | --- | --- | --- | --- | --- | --- | --- |
| CCCCCc1ccc(-c2ccc(CNC3(C)CC(OC4C(Oc5c6cc7cc5Oc5ccc(cc5Cl)C(OC5CC(C)(N)C(O)C(C)O5)C5NC(=O)C(NC(=O)C7NC(=O)C(CC(N)=O)NC(=O)C(NC(=O)C(CC(C)C)NC)C(O)c7ccc(c(Cl)c7)O6)c6ccc(O)c(c6)-c6c(O)cc(O)cc6C(C(=O)O)NC5=O)OC(CO)C(O)C4O)OC(C)C3O)cc2)cc1 (stereo not drawn) [Compound 22] | 2 (≈ 1.09 µM) | 1 (≈ 0.547 µM) | 1 (≈ 0.547 µM) | 4 (≈ 2.19 µM) | 8 (≈ 4.37 µM) | 8 (≈ 4.37 µM) | 4 (≈ 2.19 µM) | 8 (≈ 4.37 µM) | 4 (≈ 2.19 µM) | ≤ 0.06 | ≤ 0.06 | 8 (≈ 4.37 µM) | 0.049 | > 0.5 | 1.0 | > .05 mg/kg/2 | 1.5 |  |  |  |  |
| CNC(CC(C)C)C(=O)NC1C(=O)NC(CC(N)=O)C(=O)NC2C(=O)NC3C(=O)NC(C(=O)NC(C(=O)O)c4cc(O)cc(O)c4-c4cc3ccc4O)C(OC3CC(C)(N)C(O)C(C)O3)c3ccc(c(Cl)c3)Oc3cc2cc(c3OC2OC(CO)C(O)C(O)C2OC2CC(C)(NCc3ccc(OCc4ccccc4)c(OC)c3)C(O)C(C)O2)Oc2ccc(cc2Cl)C1O (stereo not drawn) [Compound 52] | 0.5 (≈ 0.275 µM) | 2 (≈ 1.1 µM) | 1 (≈ 0.55 µM) | 0.5 (≈ 0.275 µM) | 0.5 (≈ 0.275 µM) |  | ≤ 0.06 | 0.5 (≈ 0.275 µM) | 0.125 (≈ 0.0687 µM) | ≤ 0.06 | ≤ 0.06 | ≤ 0.06 | 0.052 | 0.046 | 0.59 | 0.074 mg/kg/2 | 0.11 | 0.5 (≈ 0.275 µM) | 1 (≈ 0.55 µM) | ≤ 0.06 | MIC [21]: ≤ 0.06 µg/mL; MIC [22]: 2 µg/mL (≈ 1.1 µM); MIC [23]: ≤ 0.06 µg/mL; MIC [24]: 0.5 µg/mL (≈ 0.275 µM); MIC [25]: 2 µg/mL (≈ 1.1 µM); MIC [26]: 76 µg/mL (≈ 41.8 µM); MIC [27]: > 128 µg/mL; MIC [28]: 55 µg/mL (≈ 30.2 µM) |
| CNC(CC(C)C)C(=O)NC1C(=O)NC(CC(N)=O)C(=O)NC2C(=O)NC3C(=O)NC(C(=O)NC(C(=O)O)c4cc(O)cc(O)c4-c4cc3ccc4O)C(OC3CC(C)(N)C(O)C(C)O3)c3ccc(c(Cl)c3)Oc3cc2cc(c3OC2OC(CO)C(O)C(O)C2OC2CC(C)(NCc3ccc(OCc4ccccc4)c(OCc4ccccc4)c3)C(O)C(C)O2)Oc2ccc(cc2Cl)C1O (stereo not drawn) [Compound 53] | 1 (≈ 0.528 µM) | 1 (≈ 0.528 µM) | 2 (≈ 1.06 µM) | 2 (≈ 1.06 µM) | 2 (≈ 1.06 µM) | 2 (≈ 1.06 µM) |  |  | 8 (≈ 4.22 µM) | ≤ 0.06 | 2 (≈ 1.06 µM) |  | 0.077 | 0.16 | 0.35 | 0.071 mg/kg/2 | 0.25 | 2 (≈ 1.06 µM) | 2 (≈ 1.06 µM) | ≤ 0.06 | MIC [21]: 4 µg/mL (≈ 2.11 µM); MIC [22]: 2 µg/mL (≈ 1.06 µM); MIC [23]: 2 µg/mL (≈ 1.06 µM); MIC [24]: 2 µg/mL (≈ 1.06 µM); MIC [25]: 2 µg/mL (≈ 1.06 µM) |
